Target: T1, Human Polθ polymerase domain (aa1820-2590) (Homo sapiens, UniProt O75417)
T1 construct: Human Polθ polymerase domain (aa1820-2590) was expressed in E. coli; made in house; host or cells: E. coli
T1 sequence (O75417 1820-2590): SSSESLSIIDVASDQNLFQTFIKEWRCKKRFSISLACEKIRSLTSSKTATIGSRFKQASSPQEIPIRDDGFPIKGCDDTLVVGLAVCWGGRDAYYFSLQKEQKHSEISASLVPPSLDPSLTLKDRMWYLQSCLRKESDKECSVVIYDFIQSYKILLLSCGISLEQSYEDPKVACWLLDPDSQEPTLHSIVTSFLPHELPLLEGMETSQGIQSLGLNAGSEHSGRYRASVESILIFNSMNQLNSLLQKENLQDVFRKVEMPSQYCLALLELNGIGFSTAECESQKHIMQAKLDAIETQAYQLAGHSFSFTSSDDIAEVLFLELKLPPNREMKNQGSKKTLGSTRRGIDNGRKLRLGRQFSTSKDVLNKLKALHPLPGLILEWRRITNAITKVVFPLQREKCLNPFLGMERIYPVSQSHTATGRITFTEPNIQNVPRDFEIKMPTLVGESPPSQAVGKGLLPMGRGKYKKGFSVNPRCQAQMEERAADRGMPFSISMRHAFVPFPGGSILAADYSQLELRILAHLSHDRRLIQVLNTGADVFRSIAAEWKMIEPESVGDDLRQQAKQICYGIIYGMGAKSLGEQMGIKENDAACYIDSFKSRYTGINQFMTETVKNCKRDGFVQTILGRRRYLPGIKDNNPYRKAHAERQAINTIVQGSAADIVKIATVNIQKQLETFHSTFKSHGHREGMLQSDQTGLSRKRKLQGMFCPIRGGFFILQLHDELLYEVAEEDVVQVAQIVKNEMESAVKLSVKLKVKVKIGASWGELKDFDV
Experiment: Polθ Polymerase Domain Kinact/KI Assay (PicoGreen)
Format: biochemical
Details: 0.8 nM Polθ, 100 nM DNA substrate, kobs vs [I] fit for 2-step covalent inhibitor
Outline: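 Enzyme 0.8 nM, annealed DNA substrate 100 nM, […]; 25 mM Tris pH 7.5, 5% glycerol, 0.01% Triton X-100, 0.1 mg/ml BSA, 1 mM DTT, 1% DMSO. Quench with EDTA at timepoints to 60 min; PicoGreen read. kobs from time courses → Kinact/KI.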

Work on `C=CC(=O)N1Cc2nc(CN3C[C@H]4CC(=O)N(c5cc(C(F)(F)F)cc(C)n5)[C@@H]4C(=O)N(C)c4cccc(C)c43)n(CC)c2C1` [Example 314, (3aR,11aS)-5-((5-acryloyl-1-ethyl-1,4,5,6-tetrahydro-pyrrolo[3,4-d]imid-azol-2-yl)methyl)-6,10-dimethyl-1-(6-methyl-4-(trifluoro-methyl)pyridin-2-yl)-1,3a,4,5,10,11a-hexahydro-2H-benzo[b]pyrrolo [2,3-f][1,4]diazo-cine-2,11(3H)-dione] yielded a Kinact/Kl of 1.74e+06 M⁻¹ s⁻¹.
`C=CC(=O)N1Cc2nc(CN3C[C@H]4CC(=O)N(c5cc(C(F)(F)F)cc(C)n5)[C@@H]4C(=O)N(C)c4cccc(C)c43)sc2C1` [Example 315, (3aR,11aS)-5-((5-acryloyl-5,6-di-hydro-4H-pyrrolo [3,4-d]thiazol-2-yl)-methyl)-6,10-dimeth-yl-1-(6-methyl-4-(trifluoromethyl)-pyridin-2-yl)-1,3a,4,5,10,11a-hexahydro-2H-benzo[b]pyrrolo [2,3-f][1,4]diazocine-2,11(3H)-dione] gave a Kinact/Kl of 1.79e+06 M⁻¹ s⁻¹.
`C=CC(=O)N1Cc2nc(CN3C[C@H]4CC(=O)N(c5cc(C(F)(F)F)cc(C)n5)[C@@H]4C(=O)N(C)c4cccc(C)c43)oc2C1` [Example 316, (3aR,11aS)-5-((5-acryloyl-5,6-di-hydro-4H-pyrrolo [3,4-d]oxazol-2-yl)-methyl)-6,10-dimethyl-1-(6-meth-yl-4-(trifluorometh-yl)pyridin-2-yl)-1,3a,4,5,10,11a-hexahydro-2H-benzo[b]pyrrolo [2,3-f][1,4]diazo-cine-2,11(3H)-dione] was tested, and the Kinact/Kl was 610000 M⁻¹ s⁻¹.
For `C=CC(=O)N1Cc2c(CN3C[C@H]4CC(=O)N(c5cc(C(F)(F)F)cc(C)n5)[C@@H]4C(=O)N(C)c4cccc(C)c43)nn(C)c2C1` [Example 317, (3aR,11aS)-5-((5-acryloyl-1-methyl-1,4,5,6-tetrahydro-pyrrolo[3,4-c]pyr-azol-3-yl)methyl)-6,10-dimethyl-1-(6-methyl-4-(trifluoro-methyl)pyridin-2-yl)-1,3a,4,5,10,11a-hexahydro-2H-benzo[b]pyrrolo [2,3-f][1,4]diazo-cine-2,11(3H)-dione], the Kinact/Kl was 230000 M⁻¹ s⁻¹.
`C=C(CN(C)C)C(=O)N1CC(CCCN2C[C@H]3CC(=O)N(c4cc(C(F)(F)F)cc(C)n4)[C@@H]3C(=O)N(C)c3cccc(C)c32)C1` [Example 327, (3aR,11aS)-5-(3-(1-(2-((dimethylamino)-methyl)acryloyl)-azetidin-3-yl)propyl)-6,10-dimethyl-1-(6-methyl-4-(trifluoro-methyl)pyridin-2-yl)-1,3a,4,5,10,11a-hexa-hydro-2H-benzo[b] pyrrolo[2,3-f][1,4] diazocine-2,11(3H)-dione] showed a Kinact/Kl of 3.64e+06 M⁻¹ s⁻¹.
Work on `C=C(CN(C)C)C(=O)N1CC2(CC(CN3C[C@H]4CC(=O)N(c5cc(C(F)(F)F)cc(C)n5)[C@@H]4C(=O)N(C)c4cccc(C)c43)C2)C1` [Example 328, (3aR,11aS)-5-((2-(2-((dimethylamino)-methyl)acryloyl)-2-azaspiro[3.3]heptan-6-yl)methyl)-6,10-dimethyl-1-(6-meth-yl-4-(trifluorometh-yl)pyridin-2-yl)-1,3a, 4,5,10,11a-hexa-hydro-2H-benzo[b] pyrrolo[2,3-f][1,4] diazocine-2,11(3H)-dione] yielded a Kinact/Kl of 4.11e+06 M⁻¹ s⁻¹.
With `Cc1cc(C(F)(F)F)cc(N2C(=O)C[C@@H]3CN(C[C@H]4C[C@H](NC(=O)/C=C/CN(C)C)C4)c4c(C)cccc4N(C)C(=O)[C@H]32)n1` [Example 331, (E)-N-((1R,3r)-3-(((3aR,11aS)-6,10-dimethyl-1-(6-meth-yl-4-(trifluorometh-yl)pyridin-2-yl)-2,11-dioxo-1,2,3,3a, 4,10,11,11a-octa-hydro-5H-benzo[b]pyrrolo[2,3-f][1,4]diazocin-5-yl)meth-yl)cyclobutyl)-4-(dimethylamino)but-2-enamide] the Kinact/Kl was 1.85e+06 M⁻¹ s⁻¹.
In the case of `Cc1cc(C(F)(F)F)cc(N2C(=O)C[C@@H]3CN(C[C@H]4C[C@@H](NC(=O)/C=C/CN(C)C)C4)c4c(C)cccc4N(C)C(=O)[C@H]32)n1` [Example 332, (E)-N-((1S,3s)-3-(((3aR,11aS)-6,10-dimethyl-1-(6-methyl-4-(trifluoromethyl)-pyridin-2-yl)-2,11-dioxo-1,2,3,3a,4,10, 11,11a-octahydro-5H-benzo[b]pyrrolo [2,3-f][1,4]diazocin-5-yl)methyl)cyclo-butyl)-4-(dimethyl-amino)but-2-enamide], the Kinact/Kl is reported as 1.3e+06 M⁻¹ s⁻¹.
Molecule “(3aR,11aS)-5-(2-((3R/S,9aS/R)-8-acryloyl-3-methyl-4-oxooctahydro-2H-pyrazino[1,2-a]pyrazin-2-yl)ethyl)-6-fluoro-10-methyl-1-(6-methyl-4-(trifluoromethyl)pyridin-2-yl)-1,3a,4,5,10,11a-hexahydro-2H-benzo[b]pyrrolo[2,3-f][1,4]diazocine-2,11(3H)-dione [Example 107]” has a Kinact/Kl of 420000 M⁻¹ s⁻¹.
In the case of “(3aR,11aS)-5-(2-((3S/R,9aS/R)-8-acryloyl-3-methyl-4-oxooctahydro-2H-pyrazino[1,2-a]pyrazin-2-yl)ethyl)-6-fluoro-10-methyl-1-(6-methyl-4-(trifluoromethyl)pyridin-2-yl) 1,3a,4,5,10,11a-hexahydro-2H-benzo[b]pyrrolo[2,3-f][1,4]diazocine-2,11(3H)-dione [Example 110]”, the Kinact/Kl is reported as 1e+06 M⁻¹ s⁻¹.
